In PMC3779320, “Bub3 reads phosphorylated MELT repeats to promote spindle assembly checkpoint signaling” (eLife, 2013):
Square brackets hold non-standard residues; d marks the D form. Peptide text beside a SMILES is read from it. pT = C[C@@H](OP(=O)(O)O)[C@H](N)C(=O)O

Experiments:
[1] = test system: Bub1^289–359–Bub3^R217A–R239A; experiment: ITC binding to Bub1^289–359–Bub3^R217A–R239A double mutant; design: species or system Saccharomyces cerevisiae; settings: 25°C, 20 mM Tris pH7.5, 150 mM NaCl, 1 mM DTE, complex 30 µM in cell, peptide 400 µM
Text: Because the presence of a phosphate on Thr172^Spc105/Knl1 is essential for high-affinity binding of ScBub1^289–359–Bub3 to MELT^P peptides (Figure 1), we concentrated our mutational analysis on two residues that are directly implicated in the recognition of the peptide’s phospho-threonine, Arg217^Bub3 and Arg239^Bub3. Positively charged residues are invariant at these positions of the Bub3 alignment (Figure 2C). We generated single or double alanine mutants of Arg217^Bub3 and Arg239^Bub3 in the context of ScBub1^289–359–Bub3 and tested their binding affinity for the MELT2^P peptide by ITC.
cDNA sequences coding for S. cerevisiae Bub1^289–359 and for full length Bub3 were subcloned in the first and second cassettes of pGEX-6P-2rbs vector ([Ciferri et al., 2005]). In this construct, the cDNA encoding Bub1^289–359 was sub-cloned in frame with the gene encoding GST and a cleavage site for PreScission protease, and was translated from the first ribosome-binding site (rbs). Untagged Bub3 was subcloned downstream of the second rbs in the same vector. Expression was carried out in BL21 DE3 plysS cells in LB medium by auto-induction with 0.3% lactose at 18°C for approximately 16 hr. […]
Binding isotherm was measured at 25°C by isothermal titration calorimetry on a MicroCal ITC200 device (GE Healthcare, Piscataway, NJ). […]

Bub1^289–359–R314A–Bub3 = biological target: T1, Bub1^289–359–R314A–Bub3 (Saccharomyces cerevisiae, UniProt P26449+P41695, R314A); assay type: binding; settings: ITC; Bub3-Bub1^R314A mutant compared to wild type Bub3–Bub1; MELT4^P: data not shown
T1 construct: S. cerevisiae Bub1^289–359 and for full length Bub3; ITC experiment with the MELT2^P peptide and the Bub1^289–359–R314A–Bub3 complex; GST (N, cleaved yes); made in house; host or cells: E. coli BL21 DE3 plysS
Text: Such function of Bub1 is probably exerted primarily through its structuring effects on the 4-stranded β-sheet ‘roof’ that dominates the peptide-binding region of Bub3 and which restrains the position of the positively charged residues in the ‘north’ area of the MELT^P-binding site (Figure 4E). Additionally, we observe that Arg314^Bub1, in the β1-β2 loop, contributes to the interaction with the phosphate group of P-Thr172^Spc105/Knl1 (the interaction, however, is only observed in one of the two complexes in the asymmetric unit, and in proximity of a crystal contact) and is therefore directly engaged in the interaction with the MELT2^P peptide. In ITC measurements, we observed a ∼fourfold reduction in the binding affinity of the Bub3-Bub1^R314A mutant for the MELT2^P peptide, in agreement with a role of Arg314^Bub1 is in the interaction of the Bub1-Bub3 complex with MELT2^P (Figure 4F). Similarly, Bub3–Bub1^R314A bound the MELT4^P with ∼threefold decreased affinity compared to wild type Bub3–Bub1 (data not shown).
Binding isotherm was measured at 25°C by isothermal titration calorimetry on a MicroCal ITC200 device (GE Healthcare, Piscataway, NJ). All samples were extensively dialysed into fresh GF buffer (20 mM Tris pH7.5, 150 mM NaCl, 1 mM DTE). […]

T1 sequence (P26449 whole entry): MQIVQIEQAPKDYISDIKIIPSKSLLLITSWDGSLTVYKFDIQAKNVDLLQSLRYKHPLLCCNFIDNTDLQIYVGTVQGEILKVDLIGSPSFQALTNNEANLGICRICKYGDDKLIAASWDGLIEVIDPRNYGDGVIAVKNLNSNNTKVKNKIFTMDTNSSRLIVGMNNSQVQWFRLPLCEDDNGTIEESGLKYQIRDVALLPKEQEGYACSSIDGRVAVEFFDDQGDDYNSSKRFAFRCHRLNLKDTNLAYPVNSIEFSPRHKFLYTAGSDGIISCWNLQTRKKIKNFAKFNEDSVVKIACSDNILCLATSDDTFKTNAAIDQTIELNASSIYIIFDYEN
T1 sequence (P41695 289-359 R314A): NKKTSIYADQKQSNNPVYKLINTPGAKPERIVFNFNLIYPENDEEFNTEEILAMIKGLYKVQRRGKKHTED

SMILES: CC[C@H](C)[C@H](NC(=O)[C@H](CO)NC(=O)[C@H](CCCNC(=N)N)NC(=O)[C@@H]1CCCN1C(=O)[C@H](Cc1ccccc1)NC(=O)[C@@H](NC(=O)[C@H](CCC(=O)O)NC(=O)[C@@H](NC(=O)[C@H](CCSC)NC(=O)[C@H](CCC(=O)O)NC(=O)[C@H](CCSC)NC(=O)[C@H](CO)NC(=O)[C@@H](NC(=O)[C@@H]1CCCN1C(=O)[C@H](CC(=O)O)NC(C)=O)[C@@H](C)O)[C@@H](C)OP(=O)(O)O)C(C)C)C(=O)N[C@@H](CCCNC(=N)N)C(=O)N[C@@H](CCC(N)=O)C(=O)N[C@@H](CCCCN)C(=O)N[C@@H](CC(N)=O)C(N)=O [MELT2^P] (Ac-DPTSMEM[pT]EVFPRSIRQKN-NH2; N-terminus and C-terminus assumed)
- binding (in words) [1]: no significant residual binding
- fold reduction in binding affinity (Bub1^289–359–R314A–Bub3): fourfold
